Values after ≈ are worked out from the molar mass of the structure shown.
Tests used:
[1] = test system: MRSA strain AW7 (C-MLSB-resistant); assay: MIC determination on agar plates, MRSA strain AW7; assay type: cell-based; conditions: Staphylococcus aureus, read-out: minimum inhibitory concentration (MIC)
Protocol: (§1) The microorganisms tested were two clinical isolates of C-MLSB-resistant MRSA: strains AW7 and P8, previously characterized in vitro, and in vivo in rat experimental endocarditis.
(§2) The study in vitro and the determination of the MICs (minimum inhibitory concentrations) was carried out using cultures on agar plates (Antimicrob. Agents Chemother., 39, 1419–1424 (1995), the disclosure of which is incorporated by reference herein).

[2] = test system: MRSA strain P8 (C-MLSB-resistant); assay: MIC determination on agar plates, MRSA strain P8; assay type: cell-based; conditions: Staphylococcus aureus, read-out: minimum inhibitory concentration (MIC)
Protocol: as §1, §2

MRSA strain AW7 = assay: Growth of bacterial populations on cefpirome-containing plates, with or without subinhibitory dalfopristine/quinupristine, strain AW7; assay type: cell-based, Staphylococcus aureus
Protocol: as §2
(§3) Bacterial populations of the MRSA strains Ab 7 and P8 can grow on plates containing up to 60 mg/l of cefpirome.

MRSA strain P8 = assay: Growth of bacterial populations on cefpirome-containing plates, with or without subinhibitory dalfopristine/quinupristine, strain P8; assay type: cell-based, Staphylococcus aureus
Protocol: as §2, §3

in vivo = assay: in vivo; set-up: species or system rats; conditions: Wistar, rat, iv
Protocol: The treatment was started 12 hours after the bacterial infection, and was continued for 5 days. The antibiotics were administered by means of a permanent venous catheter with a programmable pump (Pump 44; Harvard Apparatus Inc.) according to the method described in Antimicrobial Agents Chemother., 39, 1419–1424 (1995), the disclosure of which is incorporated by reference herein. The treatments simulated kinetics in humans, which were produced by intravenous administration of 7 mg/kg of quinupristine/dalfopristine every 12 hours, or by intravenous administration of 2 g of cefpirome every 12 hours.
Prior to the treatment experiments, the setting up of the simulation of the human kinetics of the quinupristine/dalfopristine combination with cefpirome in rats was performed on animals that were catheterized, but not infected. In these preliminary experiments, each point of the pharmacokinetics curve is the mean (±standard deviation) of the concentrations measured in 6 different rats. The concentrations of product in the serum were measured in a bioassay (using Micrococcus luteus for quinupristine/dalfopristine, and Bacillus subtilis ATCC 6633 for cefpirome).
These values are in accordance with the therapeutic levels observed in humans for these active principles. […]

[3] = test system: C-MLSB-resistant MRSA strains; assay: Rat experimental endocarditis resulting from C-MLSB-resistant MRSA strains (overall statement); assay type: in vivo, rats; conditions: monotherapy
Protocol: Synercid® (quinupristine/dalfopristine) and cefpirome were tested separately in rats, on experimental endocarditis resulting from C-MLSB-resistant MRSA strains.
(§4) For the experimental endocarditis study, Wistar female rats weighing 200 g with aortic vegetation (produced according to the method described by Heraief et al., Infect Immunol., 37,127–31 (1982), the disclosure of which is incorporated by reference herein) were infected with an inoculum of 10^5 CFU/ml of the organism to be tested, which corresponds to 10 times the minimum inoculum to produce endocarditis in at least 90% of the untreated controls (where CFU refers to colony forming units).
(§5) The treatment was started 12 hours after the bacterial infection, and was continued for 5 days. […]
(§6) The control rats were sacrificed at the start of the treatment and the treated rats were sacrificed 24 hours after the final antibiotic administration. The bacterial density in the vegetations was determined after dissecting the vegetations under sterile conditions, weighing, homogenizing in 1 ml of saline solution, and then diluting the solution (series of dilutions) before placing it onto plates for counting of the colonies. The number of colonies growing on the plates was determined after 48 hours of incubation at 35° C. The bacterial densities in the vegetations were expressed as log10 CFU/g of tissue. […]

MRSA AW7 = assay: Rat experimental aortic endocarditis, MRSA AW7; assay type: in vivo, Wistar female rats
Excerpt: as §4, §5, §6

MRSA P8 = assay: Rat experimental aortic endocarditis, MRSA P8; assay type: in vivo, Wistar female rats; conditions: MRSA P8, 5 days treatment, FIG. 2; monotherapy P>0.05, combination P<0.05
Excerpt: as §4, §5, §6

CO/N=C(\C(=O)N[C@@H]1C(=O)N2C(C(=O)[O-])=C(C[n+]3cccc4c3CCC4)CS[C@H]12)c1csc(N)n1 [cefpirome]
MIC [1]: 4 µg/mL (≈ 7.77 µM) | MIC [2]: 2 µg/mL (≈ 3.89 µM) | cefpirome concentration in plates up to which bacterial populations can grow (MRSA strain AW7; MRSA strain AW7 (printed Ab 7), cefpirome alone): up to 60 mg/l | cefpirome concentration in plates at which the strain did not grow (MRSA strain AW7; MRSA strain AW7, plates with subinhibitory (¼ MIC) dalfopristine/quinupristine combination added): ≥ 5 mg/L | cefpirome concentration in plates up to which bacterial populations can grow (MRSA strain P8; MRSA strain P8, cefpirome alone): up to 60 mg/l | cefpirome concentration in plates at which the strain did not grow (MRSA strain P8; MRSA strain P8, plates with subinhibitory (¼ MIC) dalfopristine/quinupristine combination added): ≥ 15 mg/L | concentration at 5 min (in vivo): 161 ± 19.7 µg/mL | concentration at 12 h (in vivo): 2.2 ± 1.4 µg/mL | effectiveness in vivo [3]: Neither Synercid® nor cefpirome showed any effectiveness in vivo in monotherapy | effectiveness on aortic endocarditis (statistical significance) (MRSA AW7; MRSA AW7, 5 days treatment, FIG. 2, monotherapy P>0.05, combination P<0.05): neither quinupristine/dalfopristine, nor cefpirome, in monotherapy were significantly effective | log10 CFU/g of vegetation (MRSA AW7; MRSA AW7, in 38% of the cases): >8.7 in 38% log10 CFU/g | effectiveness on aortic endocarditis (statistical significance) (MRSA P8): neither quinupristine/dalfopristine, nor cefpirome, in monotherapy were significantly effective

— patent US7005416B2, “Dalfopristine/quinupristine combinations with cefpirome” (Jones Pharma Incorporated, priority 2000, dated 2006)
